Laboratory results as given in PMC9940430, “Angiotensin converting enzyme (ACE) inhibitors activity from purified compounds Fructus Phaleria macrocarpa (Scheff) Boerl” (BMC Complementary Medicine and Therapies, 2023).
≈ marks a conversion by molar mass, not a printed value.

Tests used:
[1] = target: T1, angiotensin-converting enzyme (ACE) (Homo sapiens, UniProt P12821); experiment: In-vitro ACE inhibitor activity assay (HHL substrate, hippuric acid read at 228 nm); type: biochemical; settings: for inhibition at 1.25 µg/mL: ACE inhibition at a concentration of 1.25 μg/ml, read-out: inhibitory activity ± SD (%); for IC50: ACE inhibition, purified compounds and captopril, read-out: IC50 ± SD (μg/mL) (converted)
T1 sequence (P12821 30-1306, species assumed): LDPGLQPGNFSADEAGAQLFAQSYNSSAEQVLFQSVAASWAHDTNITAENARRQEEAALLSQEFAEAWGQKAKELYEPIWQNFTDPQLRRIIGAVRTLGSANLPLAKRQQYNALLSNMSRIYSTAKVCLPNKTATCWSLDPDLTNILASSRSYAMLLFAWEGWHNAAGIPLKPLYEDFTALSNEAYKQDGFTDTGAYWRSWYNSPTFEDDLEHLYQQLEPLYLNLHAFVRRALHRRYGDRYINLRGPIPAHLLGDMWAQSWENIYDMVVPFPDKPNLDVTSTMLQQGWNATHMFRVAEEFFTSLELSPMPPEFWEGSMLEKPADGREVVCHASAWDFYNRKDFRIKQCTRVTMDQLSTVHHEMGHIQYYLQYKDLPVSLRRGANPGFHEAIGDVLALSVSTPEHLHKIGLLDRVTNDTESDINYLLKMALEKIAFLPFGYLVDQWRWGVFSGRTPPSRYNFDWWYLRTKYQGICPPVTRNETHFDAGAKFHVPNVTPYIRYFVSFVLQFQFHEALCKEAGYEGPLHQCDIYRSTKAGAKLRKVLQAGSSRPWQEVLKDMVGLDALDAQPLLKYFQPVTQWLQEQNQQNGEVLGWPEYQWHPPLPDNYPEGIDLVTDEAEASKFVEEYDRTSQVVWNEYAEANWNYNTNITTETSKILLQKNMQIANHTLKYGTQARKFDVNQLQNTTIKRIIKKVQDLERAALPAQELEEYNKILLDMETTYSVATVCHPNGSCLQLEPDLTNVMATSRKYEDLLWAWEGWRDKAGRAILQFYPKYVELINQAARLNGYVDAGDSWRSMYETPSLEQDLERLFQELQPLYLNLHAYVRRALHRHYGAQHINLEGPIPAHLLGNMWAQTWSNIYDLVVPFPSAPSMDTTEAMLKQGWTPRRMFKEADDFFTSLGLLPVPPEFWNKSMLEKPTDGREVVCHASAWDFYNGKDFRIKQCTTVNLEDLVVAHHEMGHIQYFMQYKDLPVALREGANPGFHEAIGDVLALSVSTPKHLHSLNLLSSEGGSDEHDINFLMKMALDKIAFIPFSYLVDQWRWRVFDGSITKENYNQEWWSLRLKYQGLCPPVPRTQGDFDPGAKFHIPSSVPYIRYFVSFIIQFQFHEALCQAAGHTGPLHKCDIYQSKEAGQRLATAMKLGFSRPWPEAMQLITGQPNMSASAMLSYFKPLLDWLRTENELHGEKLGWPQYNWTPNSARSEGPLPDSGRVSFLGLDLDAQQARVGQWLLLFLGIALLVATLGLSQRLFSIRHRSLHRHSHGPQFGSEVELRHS
Description: This assay was conducted on extract, fraction and three purified compounds using captopril as a positive control at the concentration of 0,01, 0,05, 0,5, 1,25 dan 6,25 mM. In a test tube, 50 μL of the solution assay was added with 50 μL of 8 mM hippuryl-histidyl-leucine (HHL) substrate solution and pre-incubated at 37 °C for 10 minutes, followed by the addition of 100 μL of the ACE, homogenization by vortex mixer, and incubation for 90 minutes at 37 °C. Further, 250 μL of 1 N HCl was added to the mixture to stop the enzymatic reaction. The hippuric acid was produced, while the enzymatic reaction was extracted by 1.5 mL ethyl acetate and later separated from the mixture by centrifugation. The mixture was then concentrated by heating at 100 °C and dispersed in 3 mL of demineralized aqueous to have its absorbance measured by spectrophotometer at 228 nm. The hippuric acid concentration was utilized to calculate the percentage of inhibition (%), and the IC50 value was then calculated using the percentage inhibition obtained. […] An inhibition kinetics test was employed to determine the inhibition mechanism of these compounds. It was performed type of Inhibition was determined by the Lineweaver-Burk method to acquire the Michaelis-Menten kinetic constant. The Michaelis-Menten kinetic constant (Km) is assessed based on the regression equation y = a + bx, in which x is the substrate concentration [S], and y is the absorbance of the sample [18].
Additionally, most chemicals originating from plants positively affect other aspects of normal metabolism. […] The activity of ACE inhibition from medicines or plant extracts can be detected using various ACE inhibitory activity assay methods. Using a substrate of hippuryl-histidyl-leucine (HHL), we used the Cushman and Cheung approach to the data from this study. The ACE will hydrolyze HHL into hippuric acid (HA). A UV-visible spectrophotometer was used to measure the HA at a wavelength of 228 nm to describe the ACE activity. […] Most ACE inhibitory plant metabolites are peptides, protein hydrolysates, phenolics, flavonoids, terpenoids, and alkaloids.

[2] = target: T1, angiotensin-converting enzyme (ACE); experiment: Enzyme inhibition kinetics of ACE (Lineweaver-Burk plot); type: biochemical; settings: for type of inhibition kinetics: Lineweaver-Burk, HHL substrate 4, 6, 8, 10 and 12 μg/ml
Description: This assay was conducted on extract, fraction and three purified compounds using captopril as a positive control at the concentration of 0,01, 0,05, 0,5, 1,25 dan 6,25 mM. In a test tube, 50 μL of the solution assay was added with 50 μL of 8 mM hippuryl-histidyl-leucine (HHL) substrate solution and pre-incubated at 37 °C for 10 minutes, followed by the addition of 100 μL of the ACE, homogenization by vortex mixer, and incubation for 90 minutes at 37 °C. Further, 250 μL of 1 N HCl was added to the mixture to stop the enzymatic reaction. The hippuric acid was produced, while the enzymatic reaction was extracted by 1.5 mL ethyl acetate and later separated from the mixture by centrifugation. The mixture was then concentrated by heating at 100 °C and dispersed in 3 mL of demineralized aqueous to have its absorbance measured by spectrophotometer at 228 nm. The hippuric acid concentration was utilized to calculate the percentage of inhibition (%), and the IC50 value was then calculated using the percentage inhibition obtained. The IC50 value was determined as the peptide concentration in mg/mL was demanded to reduce 50% of ACE activity by regression analysis of the ACE inhibition versus ACE concentration percentage. The examination of the kinetics of enzyme inhibition was carried out at several concentrations of HHL substrates, which are 4, 6, 8, 10, and 12 μg/ml. The samples administered were compound with the lowest IC50 value. An inhibition kinetics test was employed to determine the inhibition mechanism of these compounds. It was performed type of Inhibition was determined by the Lineweaver-Burk method to acquire the Michaelis-Menten kinetic constant. The Michaelis-Menten kinetic constant (Km) is assessed based on the regression equation y = a + bx, in which x is the substrate concentration [S], and y is the absorbance of the sample [18].
Kinetic analysis of ACE inhibition was conducted by administering the Lineweaver-Burk plot (Fig. 4). […] The Lineweaver-Burk graph is generated from relationship of 1/[S] to 1/V.
The active compound with the smallest IC50 value was examined for enzyme inhibition kinetics. […] However, the Km values are different based on the calculation results of the Michaelis-Menten constant. […] Competitive inhibitors compete with the substrate for the enzyme’s active site so that the enzyme cannot produce an enzyme-substrate complex. However, when the concentration of the competitive inhibitor is greater than that of the substrate, it binds to the active binding site to form an enzyme inhibitor complex (EI), which ultimately prevents the formation of any product. In a typical enzymatic reaction, Vmax is the reaction’s maximal rate. Km, also known as the Michaelis-Menten constant, is the substrate concentration halfway between Vmax and Km. […]

leukemia l1210 cell line = system: leukemia l1210 cell line; parameters: method as in doi:10.22146/ijc.21576; settings: isolated from the bark of Mahkota Dewa; cited from earlier work

Row | Compound | inhibition at 1.25 µg/mL [1] [%] | IC50 [1] [µM] | Vmax, isolate versus without inhibitor ([2]; Lineweaver-Burk plot, Fig. 4) | type of inhibition kinetics ([2]; listed as compound 3) | type of inhibition kinetics ([2]; listed as mangiferin) | Km, isolate versus without inhibitor ([2]; Michaelis-Menten constant, Fig. 4) | IC50 (leukemia l1210 cell line) [µg/mL]
1 | O=c1c2cc(O)c(O)cc2oc2cc(O)c([C@@H]3O[C@H](CO)[C@@H](O)[C@H](O)[C@H]3O)c(O)c12 [Compound 3, mangiferin] | 86.99 ± 0.02 | 0.0592 | almost the same | competitively inhibiting | competitive inhibition | different | 
2 | COc1cc(O)cc(OC2OC(CO)C(O)C(O)C2O)c1C(=O)c1ccc(O)cc1 [Compound 2, 4,4′-dihydroxy-6-methoxybenzophenone-2-O-β-D-glucopyranoside] | 85.17 ± 0.23 | 0.166 |  |  |  |  | 
3 | COc1cc(O)c(C(=O)c2ccc(O)cc2)c(OC2OC(CO)C(O)C(O)C2O)c1 [6,4′-dihydroxy-6-methoxybenzophenone-2-O-β-D-glucopyranoside] |  |  |  |  |  |  | 5.1 (≈ 12.1 µM)
4 | COc1cc(O)c(C(=O)c2ccc(O)cc2)c(OC2OC(CO)C(O)C(O)C2O)c1 [Compound 1, 6,4′-dihydroxy-4-methoxybenzophenone-2-O-β-D-glucopyranoside] | 77.48 ± 0.5 | 0.13 |  |  |  |  | 
